Target: T1, hFXR (Homo sapiens, UniProt Q96RI1)
T1 construct: expressed in transfected cells; host or cells: CV-1 cells
T1 sequence (Q96RI1 1-486): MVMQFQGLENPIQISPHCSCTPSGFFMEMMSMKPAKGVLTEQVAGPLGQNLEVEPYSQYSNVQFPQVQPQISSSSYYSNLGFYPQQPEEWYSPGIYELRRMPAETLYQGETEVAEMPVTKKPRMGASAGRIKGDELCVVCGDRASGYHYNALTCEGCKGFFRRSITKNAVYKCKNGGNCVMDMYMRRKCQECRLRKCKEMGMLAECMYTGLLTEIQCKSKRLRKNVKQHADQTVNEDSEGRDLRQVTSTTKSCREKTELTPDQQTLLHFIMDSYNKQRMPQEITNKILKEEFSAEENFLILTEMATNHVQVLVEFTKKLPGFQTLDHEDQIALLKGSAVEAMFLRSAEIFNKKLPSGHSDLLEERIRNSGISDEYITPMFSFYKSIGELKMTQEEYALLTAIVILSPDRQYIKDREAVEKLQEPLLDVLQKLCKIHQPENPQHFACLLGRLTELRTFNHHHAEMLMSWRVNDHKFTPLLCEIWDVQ
T1 sequence (P19793 1-462 partner): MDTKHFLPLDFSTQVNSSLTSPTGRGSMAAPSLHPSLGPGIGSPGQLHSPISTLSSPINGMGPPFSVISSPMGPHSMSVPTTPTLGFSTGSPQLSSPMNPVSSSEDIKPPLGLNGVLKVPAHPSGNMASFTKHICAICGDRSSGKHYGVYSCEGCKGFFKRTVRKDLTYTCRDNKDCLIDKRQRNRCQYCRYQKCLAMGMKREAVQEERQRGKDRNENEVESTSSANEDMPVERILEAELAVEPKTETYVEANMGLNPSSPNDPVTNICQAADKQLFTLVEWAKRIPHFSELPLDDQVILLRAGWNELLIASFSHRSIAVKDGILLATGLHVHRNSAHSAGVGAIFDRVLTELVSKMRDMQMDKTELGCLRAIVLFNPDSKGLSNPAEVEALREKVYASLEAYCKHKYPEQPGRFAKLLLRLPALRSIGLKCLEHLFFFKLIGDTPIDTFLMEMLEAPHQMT
Assay: In Vitro FXR Assay (TK): TK-ECRE-luc reporter in transfected CV-1 cells
Assay type: cell-based
Settings: 18 hrs, luminescence, maximum efficacy of <25% of the Fexarmine control classified as '+'
Outline: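 Luciferase read-out after 18 h compound exposure of CV-1 cells carrying transfected hFXR plus hRXR expression plasmids, TK-ECRE-luc reporter and pCMX-YFP. Cells cultured in charcoal-stripped FBS before transfection; compounds serially diluted in DMSO.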

SMILES	EC50 [nM]
CNC(=O)O[C@H]1CC[C@H](C(=O)N(C[C@H]2CC[C@H](c3ccc(OC)c(C#N)n3)CC2)c2cc(-c3coc(C4CC4)n3)ccn2)CC1 [Compound 5.44, trans-4-(((trans-4-(6-Cyano-5-methoxypyridin-2-yl)cyclohexyl)methyl)(4-(2-cyclopropyloxazol-4-yl)pyridine-2-yl)carbamoyl)cyclohexyl methylcarbamate]	≤ 250
CNC(=O)O[C@H]1CC[C@H](C(=O)N(C[C@H]2CC[C@H](c3ccc(OC)c(C#N)c3)CC2)c2cc(-c3coc(C(C)C)n3)ccn2)CC1 [Compound 5.45, trans-4-(((trans-4-(3-Cyano-4-methoxyphenyl)cyclohexyl)methyl)(4-(2-isopropyloxazol-4-yl)pyridine-2-yl)carbamoyl)cyclohexyl methylcarbamate]	≤ 250
CNC(=O)O[C@H]1CC[C@H](C(=O)N(C[C@H]2CC[C@H](c3ccc(OC)c(C#N)n3)CC2)c2cccc(-c3coc(C(C)C)n3)c2)CC1 [Compound 5.46, trans-4-(((trans-4-(6-Cyano-5-methoxypyridin-2-yl)cyclohexyl)methyl)(3-(2-isopropyloxazol-4-yl)phenyl)carbamoyl)cyclohexyl methylcarbamate]	≤ 250
CCNC(=O)O[C@H]1CC[C@H](C(=O)N(C[C@H]2CC[C@H](c3ccc(OC)c(C)n3)CC2)c2cc(-c3coc(C4CC4)n3)ccn2)CC1 [Compound 5.47, trans-4-((4-(2-Cyclopropyloxazol-4-yl)pyridine-2-yl)((trans-4-(5-methoxy-6-methylpyridin-2-yl)cyclohexyl)methyl)carbamoyl)cyclohexyl ethylcarbamate]	≤ 250
COc1ccc([C@H]2CC[C@H](CN(c3cc(-c4coc(C5CC5)n4)ccn3)C(=O)[C@H]3CC[C@H](OC(N)=O)CC3)CC2)nc1C [Compound 5.48, trans-4-((4-(2-Cyclopropyloxazol-4-yl)pyridine-2-yl)((trans-4-(5-methoxy-6-methylpyridin-2-yl)cyclohexyl)methyl)carbamoyl)cyclohexyl carbamate]	≤ 250
COC(=O)O[C@H]1CC[C@H](C(=O)N(C[C@H]2CC[C@H](c3ccc(OC)c(C)n3)CC2)c2cc(-c3coc(C4CC4)n3)ccn2)CC1 [Compound 5.49, trans-4-((4-(2-Cyclopropyloxazol-4-yl)pyridine-2-yl)((trans-4-(5-methoxy-6-methylpyridin-2-yl)cyclohexyl)methyl)carbamoyl)cyclohexyl methyl carbonate]	≤ 250
CNC(=O)O[C@H]1CC[C@H](C(=O)N(C[C@H]2CC[C@H](c3cnc(OC)c(C)c3)CC2)c2cc(-c3coc(C4CC4)n3)ccn2)CC1 [Compound 5.50, trans-4-((4-(2-Cyclopropyloxazol-4-yl)pyridine-2-yl)((trans-4-(6-methoxy-5-methylpyridin-3-yl)cyclohexyl)methyl)carbamoyl)cyclohexyl methylcarbamate]	≤ 250
CCc1nc(-c2ccnc(N(C[C@H]3CC[C@H](c4ccc(OC)c(C)n4)CC3)C(=O)[C@H]3CC[C@H](OC(=O)NC)CC3)c2)co1 [Compound 5.51, trans-4-((4-(2-Ethyloxazol-4-yl)pyridin-2-yl)((trans-4-(5-methoxy-6-methylpyridin-2-yl)cyclohexyl)methyl)carbamoyl)cyclohexyl methylcarbamate]	≤ 250
CNC(=O)O[C@]1(C)CC[C@@H](C(=O)N(C[C@H]2CC[C@H](c3ccc(OC)c(C)c3)CC2)c2cccc(-c3cnn(C(C)C)c3)c2)CC1 [Compound 5.52, trans-4-((3-(1-Isopropyl-1H-pyrazol-4-yl)phenyl)((trans-4-(4-methoxy-3-methylphenyl)cyclohexyl)methyl)carbamoyl)-1-methylcyclohexyl methylcarbamate]	≤ 250
CNC(=O)O[C@]1(C)CC[C@H](C(=O)N(C[C@H]2CC[C@H](c3ccc(OC)c(C)c3)CC2)c2cccc(-c3cnn(C(C)C)c3)c2)CC1 [Compound 5.53, cis-4-((3-(1-Isopropyl-1H-pyrazol-4-yl)phenyl)(trans-4-(4-methoxy-3-methylphenyl)cyclohexyl)methyl)carbamoyl)-1-methylcyclohexyl methylcarbamate]	≤ 250
COc1ccc([C@H]2CC[C@H](CN(c3cc(-c4coc(C(C)C)n4)ccn3)C(=O)[C@H]3CC[C@H](OC(=O)N4CCOCC4)CC3)CC2)nc1C [Compound 6, trans-4-((4-(2-Isopropyloxazol-4-yl)pyridine-2-yl)((trans-4-(5-methoxy-6-methylpyridin-2-yl)cyclohexyl)methyl)carbamoyl)cyclohexyl morpholine-4-carboxylate]	≤ 250

Continued, values first:

EC50 [nM]	SMILES
≤ 250	CN(C)c1ccc([C@H]2CC[C@H](CN(c3cccc(-c4cnc(C5CC5)s4)c3)C(=O)[C@H]3CC[C@H](OC(=O)NCCO)CC3)CC2)cn1 [Compound 6.01, 4-((3-(2-Cyclopropylthiazol-5-yl)phenyl) ((trans-4-(6-(dimethylamino)pyridin-3-yl)cyclohexyl)methyl)carbamoyl) cyclohexyl (2-hydroxyethyl)trans-carbamate]
≤ 250	COc1ccc([C@H]2CC[C@H](CN(c3cc(-c4cnc(C5CC5)s4)ccn3)C(=O)[C@H]3CC[C@H](OC(=O)NCCO)CC3)CC2)cc1C [Compound 6.02, trans-4-((4-(2-Cyclopropylthiazol-5-yl)pyridin-2-yl)((trans-4-(4-methoxy-3-methylphenyl)cyclohexyl)methyl)carbamoyl)cyclohexyl (2-hydroxyethyl) carbamate]
≤ 250	COc1ccc([C@H]2CC[C@H](CN(c3cc(-c4cnc(C(C)C)s4)ccn3)C(=O)[C@H]3CC[C@H](OC(=O)NCCO)CC3)CC2)cc1C [Compound 6.03, trans-4-((4-(2-Isopropylthiazol-5-yl)pyridin-2-yl)((trans-4-(4-methoxy-3-methylphenyl)cyclohexyl)methyl)carbamoyl)cyclohexyl (2-hydroxyethyl) carbamate]
≤ 250	COc1ccc([C@H]2CC[C@H](CN(c3cccc(-c4cnc(C(C)C)s4)c3)C(=O)[C@H]3CC[C@H](OC(=O)NCCO)CC3)CC2)nc1C [Compound 6.04, trans-4-((3-(2-Isopropylthiazol-5-yl)phenyl)((trans-4-(5-methoxy-6-methylpyridin-2-yl)cyclohexyl)methyl)carbamoyl)cyclohexyl (2-hydroxyethyl)carbamate]
≤ 250	COc1ccc([C@H]2CC[C@H](CN(c3cccc(-c4cnc(C(C)C)s4)c3)C(=O)[C@H]3CC[C@H](OC(=O)NCCCO)CC3)CC2)nc1C [Compound 6.05]
≤ 250	COc1ccc([C@H]2CC[C@H](CN(c3cccc(-c4cnc(C5CC5)s4)c3)C(=O)[C@H]3CC[C@H](OC(=O)NCCO)CC3)CC2)nc1C#N [Compound 6.06, trans-4-(((trans-4-(6-Cyano-5-methoxypyridin-2-yl)cyclohexyl)methyl) (3-(2-cyclopropylthiazol-5-yl)phenyl)carbamoyl)cyclohexyl (2-hydroxyethyl)carbamate]
≤ 250	COc1ccc([C@H]2CC[C@H](CN(c3cccc(-c4cnc(C5CC5)s4)c3)C(=O)[C@H]3CC[C@H](OC(=O)NCCO)CC3)CC2)nc1C [Compound 6.07, trans-4-((3-(2-Cyclopropylthiazol-5-yl)phenyl)((trans-4-(5-methoxy-6-methylpyridin-2-yl)cyclohexyl)methyl)carbamoyl)cyclohexyl (2-hydroxyethyl)carbamate]
≤ 250	CN(C)c1ccc([C@H]2CC[C@H](CN(c3cccc(-c4cnn(C5CC5)c4)c3)C(=O)[C@H]3CC[C@H](OC(=O)NCCO)CC3)CC2)cn1 [Compound 6.08, trans-4-((3-(1-Cyclopropyl-1H-pyrazol-4-yl)phenyl)((trans-4-(6-(dimethylamino)pyridin-3-yl)cyclohexyl)methyl)carbamoyl)cyclohexyl (2-hydroxyethyl)carbamate]
≤ 250	COc1ccc([C@H]2CC[C@H](CN(c3cccc(-c4cnn(C(C)C)c4)c3)C(=O)[C@H]3CC[C@H](OC(=O)NCCO)CC3)CC2)cc1C [Compound 6.09, trans-4-((3-(1-Isopropyl-1H-pyrazol-4-yl)phenyl)((trans-4-(4-methoxy-3-methylphenyl)cyclohexyl)methyl)carbamoyl)cyclohexyl (2-hydroxyethyl) carbamate]
≤ 250	COCCNC(=O)O[C@H]1CC[C@H](C(=O)N(C[C@H]2CC[C@H](c3ccc(OC)c(C)c3)CC2)c2cccc(-c3cnn(C4CC4)c3)c2)CC1 [Compound 6.10, trans-4-((3-(1-Cyclopropyl-1H-pyrazol-4-yl)phenyl)((trans-4-(4-methoxy-3-methylphenyl)cyclohexyl)methyl)carbamoyl)cyclohexyl (2-methoxyethyl) carbamate]

Source: patent US20220089575A1, “FARNESOID X RECEPTOR AGONISTS AND USES THEREOF” (Metacrine, Inc., priority 2017, published 2022)
